The subject of experiment [1] is PBMC. As to the kind of experiment: Cytotoxicity against human PBMC cells assessed as reduction in cell viability after 5 days by Cell Titer 96 Aqueous One Solution cell proliferation assay. The format is cell-based. The conditions noted are these: 120 h.
The subject of experiment [2] is Human immunodeficiency virus 1. As to the kind of experiment: Antiviral activity against HIV1 LAV-1 infected in human PBMC cells after 6 days by RT assay. The format is functional, organism-based. The conditions noted are these: Human immunodeficiency virus 1, LAV-1, PBMC, 144 h.
The test system of experiment [3] is Vero. As to the kind of experiment: Cytotoxicity against african green monkey Vero cells assessed as reduction in cell viability after 5 days by Cell Titer 96 Aqueous One Solution cell proliferation assay. The settings on record: Chlorocebus sabaeus, 120 h. The format is cell-based.
Experiment [4] concerns CCRF-CEM. As to the kind of experiment: Cytotoxicity against human CEM cells assessed as reduction in cell viability after 5 days by Cell Titer 96 Aqueous One Solution cell proliferation assay. The format is cell-based. The conditions noted are these: 120 h.
For experiment [5], the system named is Human immunodeficiency virus 1. The experiment in a line: Antiviral activity against HIV1. The format is functional, organism-based.

Each structure is given as a SMILES string.

The term IC50 denotes the midpoint of a concentration-inhibition curve. For orientation: EC50 means the midpoint of the concentration-response curve. A word on the EC90: it is the concentration needed for an effect of 90%.

On to `Cc1c2c(nn1CC(=O)NCc1ccccc1F)-c1ccccc1S(=O)(=O)N2C`, for which the values for the half-inhibitory concentration (IC50) in experiment [1], in experiment [3] and in experiment [4] were 87.5 µM, 96.1 µM and 82 µM, respectively. Also, in experiment [2], the response was half-maximal at 57.5 µM (EC50). Besides, the EC90 in experiment [2] is at least 100 µM.

With `Cc1c2c(nn1CC(=O)Nc1ccccc1Br)-c1ccccc1S(=O)(=O)N2C`, the half-maximal inhibitory concentration (IC50) was 2.4 µM in experiment [1], 8.2 µM in experiment [3] and 6 µM in experiment [4]. The compound also registered a 50% effective concentration (EC50) in experiment [2] of 6.5 µM. The compound further gave a 90% effect concentration (EC90) in experiment [2] of 15.7 µM.

Take `Cc1c2c(nn1CC(=O)Nc1cccc(Br)c1)-c1ccccc1S(=O)(=O)N2C`: the half-inhibitory concentration (IC50) in experiment [1] came out at 8.1 µM; in experiment [3], 7.2 µM; in experiment [4], 5.2 µM. The compound also gave an EC50 in experiment [2] of 6.3 µM. Further, in experiment [2], the 90% effect concentration (EC90) turned out to be 15.3 µM.

In the case of `COc1cccc(NC(=O)Cn2nc3c(c2C)N(C)S(=O)(=O)c2ccccc2-3)c1`, the half-inhibitory concentration (IC50) is 10.5 µM in experiment [1], at least 100 µM in experiment [3] and 9.3 µM in experiment [4]. Moreover, in experiment [2], the EC50 was found to be 7.2 µM. For the same compound, in experiment [2], the 90% effect level (EC90) was put at 17.3 µM.

`COc1ccc(NC(=O)Cn2nc3c(c2C)N(C)S(=O)(=O)c2ccccc2-3)c(OC)c1`: the half-inhibitory concentration (IC50) in experiment [1], in experiment [3] and in experiment [4] was over 100 µM each time. In experiment [2], this compound had an EC50 of over 100 µM. For the same compound, the concentration for an effect of 90% (EC90) in experiment [2] is over 100 µM.

Consider `Cc1c2c(nn1CC(=O)NCc1ccccc1Cl)-c1ccccc1S(=O)(=O)N2C`, for which the IC50 was determined as 74.2 µM in experiment [1], 38.7 µM in experiment [3] and 68.4 µM in experiment [4]. The compound also came in with a half-maximal effective concentration (EC50) in experiment [2] of 15.9 µM. For the same compound, in experiment [2], the 90% effect concentration (EC90) was 28.5 µM.

Turning to `Cc1c2c(nn1CC(=O)NCc1ccc(F)cc1)-c1ccccc1S(=O)(=O)N2C`, the values for the 50% inhibitory concentration (IC50) in experiment [1], in experiment [3] and in experiment [4] were over 100 µM, over 100 µM and 41.9 µM, respectively. This compound returned an EC50 in experiment [2] of 22.4 µM. This compound also yielded a concentration for an effect of 90% (EC90) in experiment [2] of at least 100 µM.

Take `Cc1c2c(nn1CC(=O)NCc1ccccc1Br)-c1ccccc1S(=O)(=O)N2C`: the IC50 was 63.1 µM in experiment [1], 36.5 µM in experiment [3] and 38.1 µM in experiment [4]. Also, the midpoint of the response in experiment [2], the EC50, lay at 16.7 µM. The same compound came in with a concentration for an effect of 90% (EC90) in experiment [2] of 87.5 µM.

As to `COc1ccccc1CNC(=O)Cn1nc2c(c1C)N(C)S(=O)(=O)c1ccccc1-2`, the IC50 in experiment [1] was at least 100 µM; in experiment [3], over 100 µM; in experiment [4], over 100 µM. In experiment [2], this compound gave an EC50 of 17.2 µM. In addition, in experiment [2], the 90% effect concentration (EC90) worked out at 60.3 µM.

For the compound `COc1cccc(CNC(=O)Cn2nc3c(c2C)N(C)S(=O)(=O)c2ccccc2-3)c1`, the concentration for half-maximal inhibition (IC50) is 18.7 µM in experiment [1], 31.1 µM in experiment [3] and 28.8 µM in experiment [4]. In experiment [2], the concentration for a half-maximal effect (EC50) worked out at 21.1 µM. In experiment [2], this compound gave an EC90 of 92 µM.

Consider `COc1ccc(CNC(=O)Cn2nc3c(c2C)N(C)S(=O)(=O)c2ccccc2-3)cc1`, for which the IC50 is over 100 µM in experiment [1], 73 µM in experiment [3] and over 100 µM in experiment [4]. For the same compound, a half-maximal effect in experiment [2] (EC50) was put at 18.6 µM. Besides, the EC90 in experiment [2] is at least 100 µM.

Take `Cc1ccccc1CNC(=O)Cn1nc2c(c1C)N(C)S(=O)(=O)c1ccccc1-2`: the IC50 in experiment [1], in experiment [3] and in experiment [4] was over 100 µM each time. In addition, the concentration for a half-maximal effect (EC50) in experiment [2] is at least 100 µM. For the same compound, the EC90 in experiment [2] is over 100 µM.

Turning to `Cc1ccc(CNC(=O)Cn2nc3c(c2C)N(C)S(=O)(=O)c2ccccc2-3)cc1`, the results for the concentration for half-maximal inhibition (IC50) in experiment [1], in experiment [3] and in experiment [4] were 52.2 µM, 63.1 µM and over 100 µM, respectively. Moreover, the 50% effective concentration (EC50) in experiment [2] is 9.9 µM. In addition, the EC90 in experiment [2] is 77.7 µM.

As for `Cc1c2c(nn1CC(=O)Nc1ccccc1)-c1ccccc1S(=O)(=O)N2C`, the IC50 in experiment [1] is 7.7 µM; in experiment [3], 6.8 µM; in experiment [4], under 1 µM. The compound also gave a concentration giving a half-maximal response (EC50) in experiment [2] of 6.8 µM. The compound further had an EC90 in experiment [2] of 16.3 µM.

`Cc1c2c(nn1CC(=O)Nc1ccccc1F)-c1ccccc1S(=O)(=O)N2C`: the IC50 in experiment [1] came out at 18 µM; in experiment [3] it was 28.2 µM; in experiment [4], 9.5 µM. For the same compound, the concentration giving a half-maximal response (EC50) in experiment [2] was found to be 7.6 µM. This compound yielded an EC90 in experiment [2] of 35.4 µM.

In experiment [5], `C/C(=N\NC(=O)CN1c2c(-c3ccccc3)n[nH]c2-c2ccccc2S1(=O)=O)c1cc(Cl)sc1Cl` returned a 50% effective concentration (EC50) of 3.2 µM.

Source of the values: ChEMBL document CHEMBL3400033, “Molecular docking and antiviral activity of N-substituted benzyl/phenyl-2-(3,4-dimethyl-5,5-dioxidopyrazolo[4,3-c][1,2]benzothiazin-2(4H)-yl)acetamides” (Bioorg Med Chem Lett, 2015).
